What was measured:
[1] = molar heat capacity at constant pressure; mn = molality of the nth substance listed, in mol/kg; settings: 298.15 K, 101 kPa, Liquid, Flow calorimetry
[2] = mn = molality of the nth substance listed, in mol/kg; settings: 298 K, 101 kPa, Liquid

O=C([O-])C(=O)[O-].[K+].[K+] [potassium oxalate] + O
Settings | mass density, [2] [kg/m3] | molar heat capacity at constant pressure, [1] [J/K/mol]
m1 = 0.01029 | 998.319 | 75.17
m1 = 0.01993 | 999.506 | 75
m1 = 0.03995 | 1001.9 | 74.67
m1 = 0.06118 | 1004.41 | 74.34
m1 = 0.1011 | 1009.21 | 73.71
m1 = 0.1971 | 1020.46 | 72.27
m1 = 0.2996 | 1032.09 | 70.86
m1 = 0.501 | 1054.2 | 68.3
m1 = 0.7483 | 1080.17 | 65.5
m1 = 0.9987 | 1105.27 | 63
m1 = 1.197 | 1124.39 | 61.21
m1 = 1.396 | 1142.79 | 59.54
m1 = 1.497 | 1151.71 | 58.76

O=C([O-])C(=O)[O-].[Na+].[Na+] [sodium oxalate] + O
Settings | mass density, [2] [kg/m3] | molar heat capacity at constant pressure, [1] [J/K/mol]
m1 = 0.009986 | 998.164 | 75.31
m1 = 0.01989 | 999.268 | 75.27
m1 = 0.03998 | 1001.48 | 75.22
m1 = 0.0603 | 1003.67 | 75.17
m1 = 0.09999 | – | 75.08
m1 = 0.1502 | 1013.28 | 75
m1 = 0.1996 | 1018.42 | 74.93
m1 = 0.2494 | 1023.55 | 74.88

O=C([O-])CC(=O)[O-].[Na+].[Na+] [sodium malonate] + O
Settings | mass density, [2] [kg/m3] | molar heat capacity at constant pressure, [1] [J/K/mol]
m1 = 0.0102 | 998.203 | 75.19
m1 = 0.02019 | 999.271 | 75.06
m1 = 0.04023 | 1001.44 | 74.8
m1 = 0.05997 | 1003.61 | 74.54
m1 = 0.09952 | 1007.82 | 74.04
m1 = 0.2049 | 1018.85 | 72.81
m1 = 0.3005 | 1028.55 | 71.8
m1 = 0.4985 | 1048.21 | 69.9
m1 = 0.7356 | 1070.79 | 68.01
m1 = 0.9746 | 1092.13 | 66.27
m1 = 1.481 | 1134.8 | 63.33
m1 = 1.995 | 1173.58 | 61.03
m1 = 2.993 | 1241.78 | –
m1 = 3.991 | 1296.36 | –

O=C([O-])CCC(=O)[O-].[Na+].[Na+] [disodium succinate] + O
Settings | mass density, [2] [kg/m3] | molar heat capacity at constant pressure, [1] [J/K/mol]
m1 = 0.009952 | 998.141 | 75.32
m1 = 0.02038 | 999.243 | 75.31
m1 = 0.04187 | 1001.53 | 75.28
m1 = 0.06054 | 1003.53 | 75.26
m1 = 0.1003 | 1007.7 | 75.22
m1 = 0.2003 | 1018 | 75.2
m1 = 0.3001 | 1028.05 | 75.23
m1 = 0.5006 | 1047.46 | 75.44
m1 = 0.7497 | 1070.41 | 75.93
m1 = 1 | 1092.29 | 76.61
m1 = 1.494 | 1132.32 | 78.38
m1 = 1.999 | 1169.44 | 80.61

[Cl-].[Na+] [sodium chloride] + O
Settings | mass density, m1 = 0.9998 [kg/m3] | mass density, m1 = 1.999 [kg/m3] | mass density, m1 = 3 [kg/m3] | molar heat capacity at constant pressure, m1 = 0.9998 [J/K/mol] | molar heat capacity at constant pressure, m1 = 1.999 [J/K/mol] | molar heat capacity at constant pressure, m1 = 3 [J/K/mol]
[1] | – | – | – | 73.34 | 72.23 | 71.74
[2] | 1036.18 | 1072.22 | 1105.7 | – | – | –

Source: the NIST ThermoML archive (doi:10.1021/je0502400)
